Results published in US9052321B2, “Flavivirus-based system for production of hepatitis C virus (HCV)” (priority 2008, dated 2015).

Tested on: HCV particles released by BHK-21 parental or BHK-WNV1 cells
Assay: Release of HCV envelope proteins/particles by BHK cells transfected with pHCVp7 after glycosylation or trafficking inhibitors (Western blot)
Format: cell-based, HCV 1a
Conditions: for HCV production and/or secretion: summary in the model of FIG. 13; for secretion of HCV envelope as well as core proteins: BHK parental and -WNV SG-replicon cells transfected with pHCVp7, 3 mM dnj, 3 mM pag or 0.3 mM alloxan, Western blot
Protocol: FIG. 2 illustrates factors affecting the release of HCV structural proteins: A) Enhancement by flavivirus, but not alphavirus subgenomic, replicons in BHK-21 cells: BHK-21 parental cells (lane 1) or bearing WNV1 (lane 2), Den2 (lane 3) or Semliki Forest virus SG-replicon (lane 4) were transfected with pHCVp7 (plasmid encoding HCV core to p7). Three days later, clarified culture media were pelleted over 15% sucrose cushion, then pellets were analyzed by Western blot with the following monoclonal antibodies: i) anti-HCV E2: AP33; ii) anti-HCV E1: A4, and iii) anti-HCV core: C1. B) WNV- and HCV-SG rep differentially affect the release of HCV-like particles. (left) BHK-21 cells, parental or bearing WNV1 SG-rep, were transfected with HCVp7, a plasmid encoding HCV core to p7. Three days later, HCV proteins in the lysate and supernatants (SN) were analyzed by Western Blot (WB). (right) HuH-7.5 cells (parental or harboring HCV 1a SG-rep) transfected with the same plasmid, were analyzed by WB. *, the E1/E2 signals were obtained with 60 ml of culture media instead of 15 ml for BHK parental and -WNV1 cells. C) N-glycosylation but not O-glycosylation is required for the release of HCV particles: BHK cells were transfected with pHCVp7, then treated or not with 3 mM deoxynojirimycin (dnj), 3 mM phenyl acetyl galactosaminide (pag) or 0.3 mM alloxan (all) for 2 days; HCV E1 Envelope released by BHK-21 parental or BHK-WNV1 cells was analyzed by Western blot after incubation with or without endoglycosidase H (endo-H).
FIG. 11 illustrates that secretion of HCV particles involves maturation of HCV glycoproteins in Golgi apparatus: A) Twelve hours after transfection of BHK-WNV1 cells with pHCVp7, cells were treated with 20 μM brefeldin-A (BFA) for 24 hours and the amounts of HCV E1 and E2 proteins in cell lysates and released particles were analyzed by WB; Hsp70=control. B) BHK and BHK-WNV1 cells were transfected with pHCVp7. Three days later, cells and particles in SN were harvested and treated with endo-H, followed by WB analysis. *, 30 ml culture media was used for parental BHK cells (15 ml for BHK-WNV1 cells).
To test the sensitivity of HCV glycoproteins produced in BHK-21 cells to endo-beta-N-acetyl-glucosaminidase H (endoglycosidase H/endo-H; New England Biolabs), cells were transfected with pHCVp7 plasmid. Three days later, supernatant was harvested as above; cell lysate and supernatant were then incubated in the presence of endo-H according to the manufacturer's protocols. For deoxyrijinomycin (DNJ) and brefeldin A (BFA) treatment, cells were transfected with pHCVp7 and, 12 hr later, the medium was replaced with DMEM containing 5 μg/ml BFA (Sigma), or 3 mM DNJ. Cells were grown for another 24 hr and supernatant was harvested.

C[C@H]1CCC/C=C/[C@@H]2C[C@H](O)C[C@H]2[C@H](O)/C=C/C(=O)O1 [BFA, brefeldin A]
HCV secretion (BHK-WNV1 cells, 20 μM BFA for 24 hours): abrogated
electrophoretic mobility of intracellular HCV envelope proteins (BHK-WNV1 cells, BFA): enhanced
HCV production and/or secretion (BHK-WNV1 cells): blocked

OC[C@H]1NC[C@H](O)[C@@H](O)[C@@H]1O [DNJ, deoxynojirimycin]
secretion of HCV envelope as well as core proteins: strongly inhibited
HCV production and/or secretion (BHK-WNV1 cells): blocked
release of HCV particles (parental BHK-21 and BHK-WNV1 cells, 3 mM DNJ): decreased

O=C1NC(=O)C(=O)C(=O)N1 [alloxan]
secretion of HCV envelope as well as core proteins: marginal effects

CC(=O)N[C@H]1[C@@H](Oc2ccccc2)O[C@H](CO)[C@H](O)[C@@H]1O [phenyl acetyl galactosaminide]
secretion of HCV envelope as well as core proteins: marginal effects
